The NIST ThermoML archive (doi:10.1016/j.fluid.2009.03.017)
Numbers after ± are expanded uncertainties.

Columns and labels:
[1] = refractive index (Na D-line) (dimensionless); details: 293.1 K; 101.33 kPa; Liquid; Standard Abbe refractometry
[2] = 298.1 K; 101.33 kPa; Liquid; Vibrating tube method

refractive index [1] | mass density [2] | SMILES
1.422 ± 0.0007 | 1025.9 ± 0.1 kg/m3 | C1COCCO1 [1,4-dioxane]
1.4416 ± 0.0007 | 766.8 ± 0.2 kg/m3 | C=CC(C)CCC=C(C)C (centres undefined) [3,7-dimethyl-1,6-octadiene]
